Test results taken from US20260250318A1, “COMPOSITIONS AND METHODS FOR CROSSING THE BLOOD BRAIN BARRIER” (VOYAGER THERAPEUTICS, INC., priority 2022, published 2026).

Each sequence was assayed on brain (assay: Matured TTM-001 and TTM-002 variants, NGS enrichment in mouse brain). Conditions: NGS fold-enrichment, brain of mice, relative to AAV9 control.
Type: in vivo, mice

Point of comparison: KTFNGSGSPHSKAPNLQT, “Fold Enrichment relative to AAV9, Brain (Mouse)” value 168.920 fold. Against it:
- KTVNGSGSPHSKAQNHLT — lower, 70.786 fold
- KTDNGSGSPHSKAHNQQT — lower, 55.313 fold
- KTEHLSGSPHSKAQNQQT — lower, 69.494 fold

Same assay, conditions: NGS fold-enrichment, mouse brain, relative to AAV9 control

Point of comparison: KTVNGHDSPHKSLQNQQT, “Fold Enrichment relative to AAV9, Brain (Mouse)” value 16.726 fold. Against it:
- KTDNGSGSPHSKAHNQQT — higher, 55.313 fold
- KTCNGHDSPHKSGRNQQT — lower, 12.496 fold
- KTFNGSGSPHSKAPNLQT — higher, 168.920 fold
- KAVNGHDSPHKSVQNQQT — lower, 11.288 fold
- KTEHLSGSPHSKAQNQQT — higher, 69.494 fold
- KTVNGHDSPHKSRQSQQT — lower, 8.136 fold

The sequences below were run on brains, heart, liver, muscle, and DRG of the NHPs (assay: Maturation of TTM-001 and TTM-002 capsids, NGS enrichment in NHP tissues). Conditions: NGS fold-enrichment of RNA, NHP brain, relative to AAV9 control.
Type: in vivo
How it was run: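 Variants carry mutations within and flanking the loop IV peptide insert: positions 450–466 were triplet-randomized, while positions 449–466 received low-frequency point mutations. The combined pool went into two NHPs, and each peptide was scored by NGS enrichment ratio against AAV9.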

Point of comparison: KTDNGSGSPHSKAHNQQT, “Fold Enrichment relative to AAV9, Brain (NHP)” value 95.164 fold. Against it:
- KTCNGHDSPHKSGRNQQT — lower, 94.616 fold
- KTFNGSGSPHSKAPNLQT — higher, 121.436 fold
- KTVNGHDSPHKSLQNQQT — higher, 112.925 fold
- KAVNGHDSPHKSVQNQQT — lower, 81.051 fold
- KTEHLSGSPHSKAQNQQT — lower, 83.080 fold
- KTVNGHDSPHKSRQSQQT — lower, 76.458 fold

Same assay, conditions: NGS fold-enrichment, DRG of NHPs, relative to AAV9 control

Point of comparison: KTDNGSGSPHSKAHNQQT, “Fold Enrichment relative to AAV9, DRG (NHP)” value 0.000 fold. Against it:
- KTVNGSGSPHSKAQNHLT — higher, 0.133 fold
- KTFNGSGSPHSKAPNLQT — the same, 0.000 fold
- KTEHLSGSPHSKAQNQQT — the same, 0.000 fold

Same assay, conditions: NGS fold-enrichment, NHP DRG, relative to AAV9 control

Point of comparison: KTFNGSGSPHSKAPNLQT, “Fold Enrichment relative to AAV9, DRG (NHP)” value 0.000 fold. Against it:
- KTDNGSGSPHSKAHNQQT — the same, 0.000 fold
- KTCNGHDSPHKSGRNQQT — the same, 0.000 fold
- KTVNGHDSPHKSLQNQQT — the same, 0.000 fold
- KAVNGHDSPHKSVQNQQT — higher, 0.448 fold
- KTEHLSGSPHSKAQNQQT — the same, 0.000 fold
- KTVNGHDSPHKSRQSQQT — the same, 0.000 fold

Same assay, conditions: NGS fold-enrichment, NHP heart, relative to AAV9 control

Point of comparison: KTFNGSGSPHSKAPNLQT, “Fold Enrichment relative to AAV9, Heart (NHP)” value 0.167 fold. Against it:
- KTDNGSGSPHSKAHNQQT — lower, 0.000 fold
- KTCNGHDSPHKSGRNQQT — lower, 0.025 fold
- KTVNGHDSPHKSLQNQQT — higher, 0.301 fold
- KAVNGHDSPHKSVQNQQT — lower, 0.051 fold
- KTEHLSGSPHSKAQNQQT — lower, 0.000 fold
- KTVNGHDSPHKSRQSQQT — lower, 0.063 fold

Same assay, conditions: NGS fold-enrichment, NHP liver DNA, relative to AAV9 control

Point of comparison: KTDNGSGSPHSKAHNQQT, “Fold Enrichment relative to AAV9, Liver DNA (NHP)” value 0.027 fold. Against it:
- KTCNGHDSPHKSGRNQQT — higher, 0.128 fold
- KTFNGSGSPHSKAPNLQT — lower, 0.015 fold
- KTVNGHDSPHKSLQNQQT — higher, 0.322 fold
- KAVNGHDSPHKSVQNQQT — higher, 0.091 fold
- KTEHLSGSPHSKAQNQQT — higher, 0.189 fold
- KTVNGHDSPHKSRQSQQT — lower, 0.021 fold

Same assay, conditions: NGS fold-enrichment, NHP liver RNA, relative to AAV9 control

Point of comparison: KTCNGHDSPHKSGRNQQT, “Fold Enrichment relative to AAV9, Liver RNA (NHP)” value 0.000 fold. Against it:
- KTDNGSGSPHSKAHNQQT — the same, 0.000 fold
- KTFNGSGSPHSKAPNLQT — the same, 0.000 fold
- KTVNGHDSPHKSLQNQQT — the same, 0.000 fold
- KAVNGHDSPHKSVQNQQT — higher, 0.665 fold
- KTEHLSGSPHSKAQNQQT — higher, 0.021 fold
- KTVNGHDSPHKSRQSQQT — the same, 0.000 fold

Same assay, conditions: NGS fold-enrichment, NHP muscle, relative to AAV9 control

Point of comparison: KTDNGSGSPHSKAHNQQT, “Fold Enrichment relative to AAV9, Muscle (NHP)” value 0.000 fold. Against it:
- KTCNGHDSPHKSGRNQQT — the same, 0.000 fold
- KTFNGSGSPHSKAPNLQT — the same, 0.000 fold
- KTVNGHDSPHKSLQNQQT — higher, 0.059 fold
- KAVNGHDSPHKSVQNQQT — the same, 0.000 fold
- KTEHLSGSPHSKAQNQQT — higher, 0.012 fold
- KTVNGHDSPHKSRQSQQT — the same, 0.000 fold

Same assay, conditions: NGS fold-enrichment, RNA, brain of NHPs, relative to AAV9 control

Point of comparison: KTVNGSGSPHSKAQNHLT, “Fold Enrichment relative to AAV9, Brain (NHP)” value 59.239 fold. Against it:
- KTDNGSGSPHSKAHNQQT — higher, 95.164 fold
- KTFNGSGSPHSKAPNLQT — higher, 121.436 fold
- KTEHLSGSPHSKAQNQQT — higher, 83.080 fold

Same assay, conditions: NGS fold-enrichment, heart of NHPs, relative to AAV9 control

Point of comparison: KTDNGSGSPHSKAHNQQT, “Fold Enrichment relative to AAV9, Heart (NHP)” value 0.000 fold. Against it:
- KTVNGSGSPHSKAQNHLT — higher, 0.034 fold
- KTFNGSGSPHSKAPNLQT — higher, 0.167 fold
- KTEHLSGSPHSKAQNQQT — the same, 0.000 fold

Same assay, conditions: NGS fold-enrichment, liver DNA of NHPs, relative to AAV9 control

Point of comparison: KTVNGSGSPHSKAQNHLT, “Fold Enrichment relative to AAV9, Liver DNA (NHP)” value 0.156 fold. Against it:
- KTDNGSGSPHSKAHNQQT — lower, 0.027 fold
- KTFNGSGSPHSKAPNLQT — lower, 0.015 fold
- KTEHLSGSPHSKAQNQQT — higher, 0.189 fold

Same assay, conditions: NGS fold-enrichment, liver RNA of NHPs, relative to AAV9 control

Point of comparison: KTEHLSGSPHSKAQNQQT, “Fold Enrichment relative to AAV9, Liver RNA (NHP)” value 0.021 fold. Against it:
- KTVNGSGSPHSKAQNHLT — lower, 0.000 fold
- KTDNGSGSPHSKAHNQQT — lower, 0.000 fold
- KTFNGSGSPHSKAPNLQT — lower, 0.000 fold

Same assay, conditions: NGS fold-enrichment, muscle of NHPs, relative to AAV9 control

Point of comparison: KTDNGSGSPHSKAHNQQT, “Fold Enrichment relative to AAV9, Muscle (NHP)” value 0.000 fold. Against it:
- KTVNGSGSPHSKAQNHLT — the same, 0.000 fold
- KTFNGSGSPHSKAPNLQT — the same, 0.000 fold
- KTEHLSGSPHSKAQNQQT — higher, 0.012 fold
